Results taken from the supplement of paper PMC10307832.

Assays:
Experiment in all cases: relative viability (nuclei count vs DMSO), 5 days (fraction); higher = more cells survive
RU-SKI 43 + Pictilisib = compound: CC[C@@H](C)CNCC(=O)N1CCC2=C([C@@H]1COC3=CC=CC(=C3)C)C=CS2 [RU-SKI 43] + CS(=O)(=O)N1CCN(Cc2cc3nc(-c4cccc5[nH]ncc45)nc(N4CCOCC4)c3s2)CC1 [Pictilisib] (partner 1 µM)
In short: (§1)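 Lung cancer cell lines were pin-tool dosed in 1536-well plates on the day after seeding, with either a lone drug or a fixed anchor-drug dose plus five library-drug doses (not always all listed) in √10 steps. Nuclei were counted on 4× images after 5 days. Relative viability is the ratio of treated-well to vehicle-well nuclei counts, with each value a median of duplicate plates.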

MK-8033 + Trametinib = compound: Cn1cc(-c2cnc3ccc4ccc(CS(=O)(=O)NCc5ccccn5)cc4c(=O)c3c2)cn1 [MK-8033] + CC(=O)Nc1cccc(-n2c(=O)n(C3CC3)c(=O)c3c(Nc4ccc(I)cc4F)n(C)c(=O)c(C)c32)c1 [Trametinib] (partner 0.02 µM)
In short: as §1

MK-8033 + Palbociclib = compound: Cn1cc(-c2cnc3ccc4ccc(CS(=O)(=O)NCc5ccccn5)cc4c(=O)c3c2)cn1 [MK-8033] + CC(=O)c1c(C)c2cnc(Nc3ccc(N4CCNCC4)cn3)nc2n(C2CCCC2)c1=O [Palbociclib] (partner 0.5 µM)
In short: as §1

MK-8033 + AZD7762 = compound: Cn1cc(-c2cnc3ccc4ccc(CS(=O)(=O)NCc5ccccn5)cc4c(=O)c3c2)cn1 [MK-8033] + NC(=O)Nc1cc(-c2cccc(F)c2)sc1C(=O)N[C@H]1CCCNC1 [AZD7762] (partner 0.2 µM)
In short: as §1

Row | Cell Line | relative viability (RU-SKI 43 + Pictilisib; first compound 0.1 µM) | relative viability (RU-SKI 43 + Pictilisib; first compound 0.3162 µM) | relative viability (RU-SKI 43 + Pictilisib; first compound 1 µM) | relative viability (RU-SKI 43 + Pictilisib; first compound 3.162 µM) | relative viability (RU-SKI 43 + Pictilisib; first compound 10 µM) | relative viability (MK-8033 + Trametinib; first compound 0.02 µM) | relative viability (MK-8033 + Trametinib; first compound 0.06325 µM) | relative viability (MK-8033 + Trametinib; first compound 0.2 µM) | relative viability (MK-8033 + Trametinib; first compound 0.6325 µM) | relative viability (MK-8033 + Trametinib; first compound 2 µM) | relative viability (MK-8033 + Palbociclib; first compound 0.02 µM) | relative viability (MK-8033 + Palbociclib; first compound 0.06325 µM) | relative viability (MK-8033 + Palbociclib; first compound 0.2 µM) | relative viability (MK-8033 + Palbociclib; first compound 0.6325 µM) | relative viability (MK-8033 + Palbociclib; first compound 2 µM) | relative viability (MK-8033 + AZD7762; first compound 0.02 µM) | relative viability (MK-8033 + AZD7762; first compound 0.06325 µM) | relative viability (MK-8033 + AZD7762; first compound 0.2 µM) | relative viability (MK-8033 + AZD7762; first compound 0.6325 µM) | relative viability (MK-8033 + AZD7762; first compound 2 µM)
1 | LC-2-ad | 0.404 | 0.601 | 0.562 | 0.438 | 0.358 | 0.895 | 0.888 | 0.885 | 0.916 | 0.898 | 0.493 | 0.453 | 0.491 | 0.499 | 0.488 | 0.832 | 0.783 | 0.78 | 0.843 | 0.827
2 | LCLC-97TM1 | 0.191 | – | 0.213 | 0.162 | 0.188 | 0.181 | 0.19 | – | 0.207 | 0.209 | 0.243 | 0.221 | – | 0.232 | 0.216 | 0.248 | 0.338 | 0.268 | 0.227 | 0.222
3 | LCLC-103H | 0.663 | 0.629 | 0.712 | 0.624 | 0.691 | 0.637 | 0.705 | 0.673 | 0.672 | 0.696 | 0.514 | 0.51 | 0.47 | 0.295 | 0.491 | 0.756 | 0.712 | 0.788 | 0.741 | 0.82
4 | LK-2 | 0.596 | 0.809 | 0.686 | – | 0.532 | 0.668 | 0.687 | 0.688 | 0.849 | 0.766 | 0.623 | 0.528 | 0.686 | 0.885 | 0.502 | 0.454 | 0.288 | 0.316 | 0.363 | 0.427
5 | LOU-NH91 | 0.504 | 0.483 | 0.547 | 0.485 | 0.543 | 0.761 | 0.73 | 0.756 | 0.789 | 0.792 | 0.495 | 0.523 | 0.512 | 0.531 | 0.53 | 0.816 | 0.624 | 0.76 | 0.807 | 0.814
6 | LU99A | 0.312 | 0.304 | 0.321 | 0.333 | 0.292 | 0.582 | 0.48 | 0.492 | 0.582 | 0.503 | 0.414 | 0.343 | 0.398 | 0.409 | 0.39 | 0.522 | 0.27 | 0.367 | 0.458 | 0.317
7 | LXF-289 | 0.828 | 0.809 | 0.832 | 0.794 | 0.744 | 0.702 | 0.616 | 0.685 | 0.711 | 0.659 | 0.612 | 0.579 | 0.61 | 0.597 | 0.596 | 1.15 | 1.02 | 0.958 | 1.18 | 1.08
8 | NCI-H23 | 0.441 | 0.497 | 0.536 | 0.492 | 0.468 | 0.331 | 0.349 | 0.331 | – | 0.381 | 0.463 | 0.576 | 0.406 | – | 0.413 | 0.302 | 0.231 | 0.215 | – | 0.249
